# Laboratory results: BindingDB's records for doi:10.1080/14756360109162353 (Cardiff University, 2001)
# pIC50: −log10 of the molar value. Where “and” joins values, the source holds several entries; their conditions need not be identical. Equal entries are not always repeated.
# Molecular target: T1, 17-beta-hydroxysteroid dehydrogenase type 3 (Homo sapiens, UniProt P37058)
# T1 sequence (P37058 whole entry): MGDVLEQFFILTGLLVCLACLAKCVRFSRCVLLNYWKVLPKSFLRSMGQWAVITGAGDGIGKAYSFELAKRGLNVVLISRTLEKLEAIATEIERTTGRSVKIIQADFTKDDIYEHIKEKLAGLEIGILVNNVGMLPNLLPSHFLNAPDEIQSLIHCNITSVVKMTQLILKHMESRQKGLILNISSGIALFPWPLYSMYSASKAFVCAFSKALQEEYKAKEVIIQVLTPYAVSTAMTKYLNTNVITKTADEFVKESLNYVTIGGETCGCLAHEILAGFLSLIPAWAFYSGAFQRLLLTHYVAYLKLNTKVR
# Assay: Inhibition Assay
# Conditions: pH 7.45; 37 °C
# Excerpt: Inhibition assay of human testes mcrosomal 17 beta-hydroxysteroid dehydrogenase for the reduction of androstenedione.
row,pIC50,SMILES
1,4.49,"O=c1c(O)c(-c2ccc(O)c(O)c2)oc2cc(O)ccc12 [2-(3,4-dihydroxyphenyl)-3,7-dihydroxy-chromen-4-one]"
2,4.83,"Oc1ccc(O)c(-c2ccccc2)c1 [2-Phenylhydroquinone, 7]"
3,4.12,"CCN(CC)CCOc1ccc(/C(=C(\Cl)c2ccccc2)c2ccccc2)cc1 [2-[4-[(Z)-2-chloranyl-1,2-diphenyl-ethenyl]phenoxy]-N,N-diethyl-ethanamine;2-oxidanylpropane-1,2,3-tricarboxylic acid]"
4,5.24,"O=C1C=CC(=O)C(c2ccccc2)=C1 [2-phenylcyclohexa-2,5-diene-1,4-dione]"
5,4.97,"COc1ccc(-c2coc3cc(O)cc(O)c3c2=O)cc1 [5,7-dihydroxy-3-(4-methoxyphenyl)-4H-chromen-4-one]"
6,4.79,O=c1cc(-c2ccccc2)oc2ccc(O)cc12 [6-hydroxy-2-phenyl-4H-chromen-4-one]
7,5.04,"C#CCC1(C(=O)OC(=C(c2ccccc2)c2ccccc2)c2ccccc2)CC(=O)NC1=O (stereo not drawn) [17Beta-HSD Inhibitor, 3]"
8,4.52,O=c1c(-c2ccc(O)cc2)coc2cc(O)cc(O)c12 [Prunetol]

row,SMILES,pIC50
1,O=c1c(O)c(-c2cc(O)c(O)c(O)c2)oc2cc(O)cc(O)c12,4.00
2,"O=c1cc(-c2ccc(O)cc2)oc2cc(O)cc(O)c12 [Naringenin, 18]",4.67 and 4.79
